Experiments:
Nociceptin receptor [1] = molecular target: T1, Nociceptin receptor (Rattus norvegicus, UniProt P35370); test: Activation of rat ORL1 receptor expressed in african green monkey COS7 cells by [35S]GTPgammaS binding assay; format: functional, cell-based, COS-7
Nociceptin receptor [2] = molecular target: T1, Nociceptin receptor; test: Displacement of [3H]nociceptin from rat ORL1 receptor expressed in african green monkey COS7 cells; format: cell-based, COS-7
[3] = Stability in presence of trypsin assessed as half life of compound hydrolysis; format: ADME
[4] = Stability in presence of rat brain trypsin assessed as half life of compound hydrolysis by HPLC; format: physicochemical
[5] = Stability in presence of rat brain trypsin assessed compound degradation after 60 mins by HPLC; format: ADME; conditions: read-out: Activity
[6] = Stability in presence of rat brain trypsin assessed as half life of compound hydrolysis in presence of trypsin inhibitor bacitracin by HPLC; format: ADME, tissue-based; conditions: isolated protein
[7] = molecular target: Nociceptin receptor (Rattus norvegicus) (UniProt P35370); test: Activation of rat ORL1 receptor expressed in african green monkey COS7 cells assessed as stimulation of [35S]GTPgammaS binding relative to nociceptin; format: functional, cell-based; conditions: COS-7
Chain of Nociceptin receptor (Rattus norvegicus) (P35370 whole entry): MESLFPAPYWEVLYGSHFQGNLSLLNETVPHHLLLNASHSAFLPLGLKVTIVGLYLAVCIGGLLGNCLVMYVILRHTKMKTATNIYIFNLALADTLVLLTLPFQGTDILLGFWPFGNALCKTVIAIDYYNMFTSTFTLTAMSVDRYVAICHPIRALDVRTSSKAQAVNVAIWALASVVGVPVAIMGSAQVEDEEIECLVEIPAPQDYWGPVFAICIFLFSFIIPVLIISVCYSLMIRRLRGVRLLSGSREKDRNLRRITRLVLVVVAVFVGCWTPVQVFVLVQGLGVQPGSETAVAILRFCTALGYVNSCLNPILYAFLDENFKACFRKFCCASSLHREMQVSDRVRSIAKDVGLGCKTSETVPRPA

T1 sequence (P35370 whole entry): as above

Row | Molecule | EC50 (Nociceptin receptor [1]) | IC50 (Nociceptin receptor [2]) | other results
1 | CC(C)C[C@H](NC(=O)[C@H](CCCCN)NC(=O)[C@H](CCCNC(=N)N)NC(=O)[C@H](C)NC(=O)[C@H](CO)NC(=O)[C@H](CCCCN)NC(=O)[C@H](CCCNC(=N)N)NC(=O)[C@H](C)NC(=O)CNC(=O)[C@@H](NC(=O)[C@H](Cc1ccccc1)NC(=O)CNC(=O)CNC(=O)[C@@H](N)Cc1ccccc1)[C@@H](C)O)C(=O)N[C@@H](CCCCN)C(=O)N[C@@H](CC(N)=O)C(=O)N[C@@H](CCC(N)=O)C(=O)O | 5.8 nM | 0.41 nM | half-life [3]: 20 min
2 | C[C@H](NC(=O)CNC(=O)[C@@H](NC(=O)[C@H](Cc1ccccc1)NC(=O)CNC(=O)CNC(=O)[C@@H](N)Cc1ccccc1)[C@@H](C)O)C(=O)N[C@@H](CCCN=C(N)N)C(=O)N[C@@H](CCCCN)C(=O)N[C@@H](CO)C(=O)N[C@@H](C)C(=O)N[C@@H](CCCN=C(N)N)C(=O)N[C@@H](CCCCN)C(=O)N[C@@H](Cc1ccc(O)cc1)C(=O)N[C@@H](C)C(=O)N[C@@H](CC(N)=O)C(=O)N[C@@H](CCC(N)=O)C(=O)O | 11 nM | 1.1 nM | –
3 | C[C@H](NC(=O)CNC(=O)[C@@H](NC(=O)[C@H](Cc1ccccc1)NC(=O)CNC(=O)CNC(=O)[C@@H](N)Cc1ccccc1)[C@@H](C)O)C(=O)N[C@@H](CCCN=C(N)N)C(=O)N[C@@H](CCCCN)C(=O)N[C@@H](CO)C(=O)N[C@@H](C)C(=O)N[C@@H](CCCN=C(N)N)C(=O)N[C@@H](CCCCN)C(=O)N[C@@H](CCCN=C(N)N)C(=O)N[C@@H](CCCCN)C(=O)N[C@@H](CC(N)=O)C(=O)N[C@@H](CCC(N)=O)C(=O)O | 1.1 nM | 0.21 nM | half-life [4]: 600 min; metabolised at 1 h [5]: < 10%; Stability [6]: Stable; half-life [3]: 30 min
4 | C[C@H](NC(=O)CNC(=O)[C@@H](NC(=O)[C@H](Cc1ccccc1)NC(=O)CNC(=O)CNC(=O)[C@@H](N)Cc1ccccc1)[C@@H](C)O)C(=O)N[C@@H](CCCNC(=N)N)C(=O)N[C@@H](CCCCN)C(=O)N[C@@H](CO)C(=O)N[C@@H](C)C(=O)N[C@@H](CCCNC(=N)N)C(=O)N[C@@H](CCCCN)C(=O)N[C@@H](CCCNC(=N)N)C(=O)N[C@@H](CCCCN)C(=O)N[C@@H](CC(N)=O)C(=O)N[C@@H](CCC(N)=O)C(=O)O | – | – | Activity [7]: 10%
5 | CC(C)C[C@H](NC(=O)[C@H](CCCCN)NC(=O)[C@H](CCCN=C(N)N)NC(=O)[C@H](C)NC(=O)[C@H](CO)NC(=O)[C@H](CCCCN)NC(=O)[C@H](CCCN=C(N)N)NC(=O)[C@H](C)NC(=O)CNC(=O)[C@@H](NC(=O)[C@H](Cc1ccccc1)NC(=O)CNC(=O)CNC(=O)[C@@H](N)Cc1ccccc1)[C@@H](C)O)C(=O)N[C@@H](C)C(=O)N[C@@H](CC(N)=O)C(=O)N[C@@H](CCC(N)=O)C(=O)O [NOCICEPTIN] | – | – | half-life [4]: 480 min; metabolised at 1 h [5]: 10%; Stability [6]: Stable; half-life [3]: 13 min
6 | H-FGGFTGARKRKRKLANQ-OH [listing 1 of 2 here] | 86 nM | 0.94 nM | –
7 | H-FGGFTGARKRKRKLANQ-OH [listing 2 of 2 here] | – | – | Activity [7]: > 90%
8 | H-FGGFTGARKSARKAANQ-OH | 11 nM | 1.5 nM | –
9 | H-FGGFTGARKSARKFANQ-OH | 9 nM | 1.1 nM | –
10 | H-FGGFTGARKSARKKANQ-OH | 4.1 nM | 0.41 nM | –
11 | H-FGGFTGARKSARKKKNQ-OH | 1.1 nM | 0.16 nM | –
12 | H-FGGFTGARKSARKKRNQ-OH | 1.3 nM | 0.21 nM | –
13 | H-FGGFTGARKSARKLARK-OH | 2.7 nM | 0.54 nM | –
14 | H-FGGFTGARKSARKLFNQ-OH | 12 nM | 1 nM | –
15 | H-FGGFTGARKSARKLLNQ-OH | 10 nM | 0.48 nM | –
16 | H-FGGFTGARKSARKLRNQ-OH | 3.2 nM | 0.31 nM | –
17 | H-FGGFTGARKSARKLVNQ-OH | 30 nM | 2.2 nM | –
18 | H-FGGFTGARKSARKLWNQ-OH | 50 nM | 2.1 nM | –
19 | H-FGGFTGARKSARKLYNQ-OH | 33 nM | 1 nM | –
20 | H-FGGFTGARKSARKRANQ-OH | 4 nM | 0.33 nM | half-life [3]: 23 min
21 | H-FGGFTGARKSARKRKRK-OH | 2.3 nM | 0.42 nM | –
22 | H-FGGFTGARKSARKRRNQ-OH | 0.98 nM | 0.27 nM | –
23 | H-FGGFTGARKSARKVANQ-OH | 15 nM | 1.1 nM | –
24 | H-FGGFTGARKSARKWANQ-OH | 5.8 nM | 0.41 nM | –
25 | H-FGGFTRKRKSARKLANQ-OH [listing 1 of 2 here] | 870 nM | 13 nM | –
26 | H-FGGFTRKRKSARKLANQ-OH [listing 2 of 2 here] | – | – | Activity [7]: 60%

Reference: ChEMBL document CHEMBL1142464, “Synergistic effect of basic residues at positions 14-15 of nociceptin on binding affinity and receptor activation” (Bioorg Med Chem, 2008)
